In patent US20260102501A1, “ANTI-CANCER NUCLEAR HORMONE RECEPTOR-TARGETING COMPOUNDS” (Nuvation Bio Inc., priority 2022, published 2026):
Positions count from the first letter of the chain named.

Columns and labels:
LNCap cells = experiment: Cell viability assay (CellTiterGlo); type: cell-based; settings: Homo sapiens, 144 h, 6 days incubation, CellTiterGlo, read-out: LNCap (IC50)
IEC6 cells = experiment: Cell viability assay (CellTiterGlo); settings: Rattus norvegicus, IEC-6, 144 h, read-out: IEC-6 (IC50, nM)
[1] = target: T1, AR (cytosol from LnCaP cells) (Homo sapiens, UniProt P10275, T878A); experiment: AR binding assay (3H-R1881 displacement)
T1 sequence (P10275 1-920 T878A): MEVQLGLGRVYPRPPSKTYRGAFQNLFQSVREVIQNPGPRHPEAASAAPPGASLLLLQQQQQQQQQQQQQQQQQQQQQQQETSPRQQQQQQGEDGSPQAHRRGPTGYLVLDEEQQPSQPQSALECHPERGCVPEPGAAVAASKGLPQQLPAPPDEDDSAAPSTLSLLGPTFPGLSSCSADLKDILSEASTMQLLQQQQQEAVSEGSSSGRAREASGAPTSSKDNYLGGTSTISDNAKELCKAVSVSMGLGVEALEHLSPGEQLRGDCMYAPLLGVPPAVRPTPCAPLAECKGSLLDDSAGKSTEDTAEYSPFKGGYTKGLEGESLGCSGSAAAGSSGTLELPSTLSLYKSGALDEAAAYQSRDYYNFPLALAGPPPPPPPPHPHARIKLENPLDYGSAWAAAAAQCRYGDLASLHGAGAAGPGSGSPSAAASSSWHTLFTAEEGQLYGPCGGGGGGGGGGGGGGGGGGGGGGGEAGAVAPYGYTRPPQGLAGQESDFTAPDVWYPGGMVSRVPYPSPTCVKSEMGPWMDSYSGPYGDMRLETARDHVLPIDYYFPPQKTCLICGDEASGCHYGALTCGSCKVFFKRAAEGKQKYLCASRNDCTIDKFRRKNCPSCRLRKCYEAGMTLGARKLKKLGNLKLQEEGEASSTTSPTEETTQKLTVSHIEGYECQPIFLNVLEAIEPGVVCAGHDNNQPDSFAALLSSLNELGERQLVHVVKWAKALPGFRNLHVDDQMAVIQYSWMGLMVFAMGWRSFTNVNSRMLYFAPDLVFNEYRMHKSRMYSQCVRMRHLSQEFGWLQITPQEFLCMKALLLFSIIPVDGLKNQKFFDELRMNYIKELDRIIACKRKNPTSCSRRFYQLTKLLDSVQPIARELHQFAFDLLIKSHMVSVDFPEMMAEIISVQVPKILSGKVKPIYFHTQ
Experimental: The plate was then centrifuged at 3000 rpm for 30 minutes at 4° C.

[2] = target: T2, full-length androgen receptor (HEK293 cells stably expressing) (Homo sapiens, UniProt P10275); experiment: AR antagonism assay (luciferase reporter)
T2 sequence (P10275 1-920): T1 sequence (P10275 1-920 T878A) with A878T
Experimental: AR antagonism assay: To evaluate AR antagonist activity, test compound was added to the assay plate (top dose 10 μM, 3 fold serial dilution, 10 point dose response). HEK293 cells stably expressing the full-length androgen receptor were seeded at a density of 20000 cells/well in the assay plate. The assay plate was then incubated at room temperature for 10 minutes and at 37° C. 5% CO2 for 20 minutes. Testosterone was added to the assay plate at 1 nM final concentration and the assay plate incubated at 37° C., 5% CO2 for 20 h. […] Steady-glo was added to the assay plate and mixed at room temperature for 20 minutes on an orbital shaker, before reading out on the En Vision plate reader.

[3] = target: T3, ligand binding domain of the glucocorticoid receptor (HEK293 cells stably expressing) (Homo sapiens, UniProt P04150); experiment: GR antagonism assay (luciferase reporter)
T3 sequence (P04150 524-758 limits assumed): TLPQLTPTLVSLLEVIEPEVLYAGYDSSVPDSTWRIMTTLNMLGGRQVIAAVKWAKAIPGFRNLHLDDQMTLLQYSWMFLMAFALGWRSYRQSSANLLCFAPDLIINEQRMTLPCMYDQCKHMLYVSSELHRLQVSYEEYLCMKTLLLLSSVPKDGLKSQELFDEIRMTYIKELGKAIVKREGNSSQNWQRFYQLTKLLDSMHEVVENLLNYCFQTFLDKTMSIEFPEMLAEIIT
Experimental: HEK293 cells stably expressing the ligand binding domain of the glucocorticoid receptor were seeded at a density of 40000 cells/well in the assay plate. The assay plate was then incubated at 37° C., 5% CO2 for 30 minutes. Dexamethasone was added to the assay plate at 1.5 nM final concentration and the assay plate incubated at 37° C., 5% CO2 for 20 h. After the incubation period, Dual-glo luciferase reagent was added to the assay plate and mixed at room temperature for 20 minutes on an orbital shaker, before reading out on the En Vision plate reader. 50 μL of Stop & Glo reagent was added to assay plate, mixed at room temperature for 20 minutes, and read on the Envision plate reader.

Q: How did the IC50 (LNCap cells) turn out when CC[C@@]1(O)C(=O)OCc2c1cc1n(c2=O)Cc2c-1nc1cc(F)c(C)c3c1c2[C@@H](NCC1CCN(CC2CCN(C(=O)CN(C)c4ccc([C@H]5C[C@@]6(C)[C@@H](CC[C@]6(OC(C)=O)C(C)=O)[C@@H]6CCC7=CC(=O)CCC7=C65)cc4)CC2)CC1)CC3 [Compound No. 51, (8S,11R,13S,14S,17R)-17-acetyl-11-(4-((2-(4-((4-((((1S,9S)-9-ethyl-5-fluoro-9-hydroxy-4-methyl-10,13-dioxo-2,3,9,10,13,15-hexahydro-1H,12H-benzo[de]pyrano[3′,4′:6,7]indolizino[1,2-b]quinolin-1-yl)amino)methyl)piperidin-1-yl)methyl)piperidin-1-yl)-2-oxoethyl)(methyl)amino)phenyl)-13-methyl-3-oxo-2,3,6,7,8,11,12,13,14,15,16,17-dodecahydro-1H-cyclopenta[a]phenanthren-17-yl acetate] was run?
A: Its IC50 is 0.01 to 0.1 µM.

Q: What about the IC50 (IEC6 cells) of the same compound?
A: Its IC50 is 101 to 1000 nM.

Q: And the IC50 [1]?
A: The IC50 was < 0.01 µM.

Q: What about the IC50 [2] of the same compound?
A: The IC50 was 0.01 to 0.1 µM.

Q: What about the IC50 [3] of the same compound?
A: The IC50 was 0.01 to 0.1 µM.
